pIC50: −log10 of the molar value. Converted amounts (≈) assume the structure as drawn. Some results are limits rather than exact numbers.

One assay relates to intracellular Mtb H37Rv. The assay can be described thus: microbe, parasite or virus in culture. It counts as cell-based. To be noted: Mycobacterium tuberculosis, THP-1, read-out: IC50 intracell.
Take `NNC(=O)c1ccncc1` [Isoniazid, reference compound]: the pIC50 was 6.64.

The same assay, now with this note: Mycobacterium tuberculosis, THP-1, read-out: IC90 intracell.
Regarding `NNC(=O)c1ccncc1` [Isoniazid, reference compound], the IC90 stood at 0.29 µM.

The next assay relates to Mtb H37Rv. Kind of assay: Primary screen: MIC, IC50 and IC90 under aerobic conditions. Format: cell-based. The note with it: Mycobacterium tuberculosis.
Turning to `COC(=O)C[n+]1ccn(Cc2cccc(Cn3cc[n+](CC(=O)OC)c3)n2)c1` [Compound 4a, 1,1′-(pyridine-2,6-diylbis(methylene))bis(3-(2-methoxy-2-oxoethyl)-1H-imidazol-3-ium) bromide], the negative-log IC50 (pIC50) is less than 3.70, the IC90 was greater than 200 µM and the MIC was greater than 200 µM.

For `NC(=O)C[n+]1ccn(Cc2cccc(Cn3cc[n+](CC(N)=O)c3)n2)c1` [Compound 4b, 1,1′-(pyridine-2,6-diylbis(methylene))bis(3-(2-amino-2-oxoethyl)-1H-imidazol-3-ium) iodide], the pIC50 is less than 3.70, the IC90 is greater than 200 µM and the MIC is greater than 200 µM.

For the compound `O=C(C[n+]1ccn(Cc2cccc(Cn3cc[n+](CC(=O)c4ccccc4)c3)n2)c1)c1ccccc1` [Compound 4c, 1,1′-(pyridine-2,6-diylbis(methylene))bis(3-(2-oxo-2-phenylethyl)-1H-imidazol-3-ium) bromide], the pIC50 was less than 3.70, the IC90 was greater than 200 µM and the MIC is greater than 200 µM.

With `O=C(C[n+]1ccn(Cc2cccc(Cn3cc[n+](CC(=O)c4ccc(Cl)cc4)c3)n2)c1)c1ccc(Cl)cc1` [Compound 4e, 1,1′-(pyridine-2,6-diylbis(methylene))bis(3-(2-(4-chlorophenyl)-2-oxoethyl)-1H-imidazol-3-ium) bromide], the pIC50 is 4.47, the 90% effect level (IC90) was put at 63 µM and the MIC came to 51 µM.

`COc1ccc(C(=O)C[n+]2ccn(Cc3cccc(Cn4cc[n+](CC(=O)c5ccc(OC)cc5)c4)n3)c2)cc1` [Compound 4g, 1,1′-(pyridine-2,6-diylbis(methylene))bis(3-(2-(4-methoxyphenyl)-2-oxoethyl)-1H-imidazol-3-ium) bromide]: the pIC50 was 3.80, the IC90 is greater than 200 µM and the MIC was greater than 200 µM.

In turn, `COC(=O)C[n+]1cn(Cc2cccc(Cn3c[n+](CC(=O)OC)c4ccccc43)n2)c2ccccc21` [Compound 6a, 1,1′-(pyridine-2,6-diylbis(methylene))bis(3-(2-methoxy-2-oxoethyl)-1H-benzo[d]imidazol-3-ium) bromide] gave a pIC50 of less than 3.70, an IC90 greater than 200 µM and an MIC greater than 200 µM.

With `NC(=O)C[n+]1cn(Cc2cccc(Cn3c[n+](CC(N)=O)c4ccccc43)n2)c2ccccc21` [Compound 6b, 1,1′-(pyridine-2,6-diylbis(methylene))bis(3-(2-amino-2-oxoethyl)-1H-benzo[d]imidazol-3-ium) iodide], the pIC50 is 3.74, the IC90 was greater than 200 µM and the MIC is greater than 200 µM.

`O=C(C[n+]1cn(Cc2cccc(Cn3c[n+](CC(=O)c4ccc(Cl)cc4)c4ccccc43)n2)c2ccccc21)c1ccc(Cl)cc1` [Compound 6e, 1,1′-(pyridine-2,6-diylbis(methylene))bis(3-(2-(4-chlorophenyl)-2-oxoethyl)-1H-benzo[d]imidazol-3-ium) bromide]: the pIC50 was 5.10, the IC90 stood at 18 µM and the MIC stood at 17 µM.

As to `COc1ccc(C(=O)C[n+]2cn(Cc3cccc(Cn4c[n+](CC(=O)c5ccc(OC)cc5)c5ccccc54)n3)c3ccccc32)cc1` [Compound 6g, 1,1′-(pyridine-2,6-diylbis(methylene))bis(3-(2-(4-methoxyphenyl)-2-oxoethyl)-1H-benzo[d]imidazol-3-ium) bromide], the MIC is 58 µM.

Another assay concerns NRP Mtb H37Rv. The assay can be described thus: microbe, parasite or virus in culture. It counts as cell-based. To be noted: Mycobacterium tuberculosis, Low oxygen.
As for `Cc1ncc([N+](=O)[O-])n1CCO` [Metronidazole, reference compound], the pIC50 was 4.54, the 90% effect concentration (IC90) came to 110 µM and the MIC is 200 µM (≈ 34.2 µg/mL).

The assay is the same for the next values; noted with them: Mycobacterium tuberculosis, Normal oxygen.
As for `Cc1ncc([N+](=O)[O-])n1CCO` [Metronidazole, reference compound], the pIC50 was less than 3.70, the IC90 was greater than 200 µM and the MIC is greater than 200 µM.

Broadly, the pIC50 is the IC50 on a negative log10 scale, so that one unit is a factor of ten. As usually defined, the IC90 is the point of the concentration-response curve where the effect stands at 90%.

Values taken from paper PMC7421780 (Future Medicinal Chemistry, 2020).
